In one series the target is PDE-5A enzyme (Homo sapiens (Human), UniProt O76074). Put plainly: Caliper Mobility-Shift PDE-5A Assay. Conditions: Table 1; Avanafil value is the control. The format is biochemical. As for the experimental part: Experiment 1: Measurement of Enzymatic Activity In Vitro
PDE-5A enzyme: humanized PDE-5 enzyme, SignalChem, Cat#93-31G-20.
Method: enzyme assay, Caliper Mobility-Shift PDE-5A Assay:
The test compound was accurately weighed, dissolved in DMSO, mixed thoroughly and formulated into 10 mM.
The maximum final concentration of the compound was 10 μM. The plate was incubated at 30° C. for 1 h, and 20 μL of 70 μM EDTA was then added to stop the reaction. 26 μL of solution of each well was transferred to a 384-well plate. The conversion was read on a EZ reader II. The inhibition rate was calculated by the formula below, and used to calculate IC50 by Prism 5.0 Inhibition rate=[Conversion (ZPE)−Conversion (sample)]×100/[Conversion (ZPE)−Conversion (HPE)]
Note: HPE: control without enzyme; ZPE: control without a test compound

Series [1] is described as follows: Pharmacokinetics (PK) in SD rats. The series is classed as in vivo. The note with it: rat; for AUC(0-inf) / Cmax / Tmax / half-life / bioavailability: SD, plasma; for bioavailability: read-out: F % (absolute bioavailability). As for the experimental part:
Experiment 9: Assay of Pharmacokinetics (PK) of the Compounds of the Present Invention in SD Rats
Compound 1-54 of the present invention were prepared by the methods described in Example 1 to Example 54 of the present invention.
The control drug Avanafil, of which the structure was stated above, was purchased commercially.
Collection of the rat's blood: The animal was fixed. The tail was warmed with a water bath 10 min before the collection time. About 200 μL of whole blood was collected from the tail vein. The collected blood was collected into anticoagulant tubes containing heparin sodium. The blood samples were centrifuged at 4° C. by 8000 rpm for 6 min to give the plasma samples, which should be prepared within 30 min after the collection of blood. The plasma samples were stored in a freezer of −80° C. until test.
The result output by Analyst 1.5.1 of AB Company was used as the concentration of the tested sample (plasma sample). The mean value, standard deviation, variable coefficient and the like were calculated by Microsoft Excel (except for the result directly output by Analyst 1.5.1). Parameters of PK were calculated by Pharsight Phoenix 6.2 software. Formula for calculating oral bioavailability: F %=AUCinf−po*Doseiv/AUCinf−iv*Dosepo.

The mark [2] stands for this setting: po, intragastric administration, 5 mg/kg.
Where [3] appears, read: po, intragastric administration, 2 mg/kg.

The structures appear in SMILES notation. Where two headings read alike, the source gives them in different places.

One may read the IC50 as the concentration at which inhibition is half-maximal. `COc1ccc(CNc2nc(N3CCC4(CC4)C3)ncc2C(=O)NCc2ccccc2)cc1Cl` [Compound 21, N-benzyl-4-((3-chloro-4-methoxybenzyl)amino)-2-(5-azaspiro[2.4]heptan-5-yl)pyrimidine-5-formamide]: the half-maximal inhibitory concentration (IC50) on PDE-5A enzyme turned out to be 0.0173 µM.
For orientation: AUC(0-inf) means the area under the concentration-time curve extrapolated to infinity. A low value points to less exposure. Usually Cmax stands for the peak of the concentration-time curve. As a reminder, the Tmax is the time from dosing to the highest level. As usually defined, the half-life is the time in which the quantity being followed falls by half. The low end stands for fast loss, the high end for slow loss. The bioavailability is the share of a dose that reaches the circulation, judged against a reference dose that is usually intravenous. With `CCOc1ccc(CNc2nc(N3CC4CC4C3)ncc2C(=O)N[C@H]2CC[C@H](O)CC2)cc1F` (stereo partly drawn) [Compound 49, 2-(3-azabicyclo[3.1.0]hexan-3-yl)-4-((3-fluoro-4-ethoxybenzyl)amino)-N-((trans)-4-hydroxycyclohexyl)pyrimidine-5-formamide], in series [1] (setting [2]), the area under the curve AUC(0-inf) worked out at 5.83 µg·h/mL, the Cmax was determined as 0.505 µg/mL, the Tmax stood at 4 h and the half-life was 4.1 h. Moreover, the bioavailability in series [1] (setting [2]) turned out to be 60%. Besides, in series [1] (intravenous injection, 2 mg/kg), the AUC(0-inf) came to 3.86 µg·h/mL, the half-life is 3.9 h, the Cl_obs is 0.52 L/h/kg and the Vss_obs amounted to 2.46 L/kg.
Consider `COc1ccc(CNc2nc(N3CC4CC4C3)ncc2C(=O)NCc2ccccn2)cc1Cl` (stereo not shown) [Compound 2, 2-(3-azabicyclo[3.1.0]hexan-3-yl)-4-((3-chloro-4-methoxybenzyl)amino)-N-(pyridin-2-ylmethyl)pyrimidine-5-formamide], for which, in series [1] (setting [3]), the AUC(0-inf) amounted to 0.069 µg·h/mL, the concentration peaked (Cmax) at 0.012 µg/mL, the time of peak concentration (Tmax) turned out to be 1 h and the half-life was 2.95 h. Moreover, in series [1] (setting [3]), the bioavailability is 12%. Moreover, in series [1] (intravenous injection, 1 mg/kg), the area under the curve AUC(0-inf) stood at 0.219 µg·h/mL, the half-life is 1.78 h, the Cl_obs was 4.63 L/h/kg and the Vss_obs stood at 10.57 L/kg.
As to `COc1ccc(CNc2nc(N3CCC4(CC3)CC4)ncc2C(=O)N[C@H]2CC[C@H](O)CC2)cc1Cl` [Compound 36, 4-((3-chloro-4-methoxybenzyl)amino)-N-(trams-4-hydroxycyclohexyl)-2-(6-azaspiro[2.5]octan-6-yl)pyrimidine-5-formamide], at PDE-5A enzyme, the IC50 is 0.0524 µM.
As for `COc1ccc(CNc2nc(N3CCC4(CC4)C3)ncc2C(=O)NCc2ncccn2)cc1Cl` [Compound 41, 4-((3-chloro-4-methoxybenzyl)amino)-N-(pyrimidin-2-ylmethyl)-2-(5-azaspiro[2.4]heptan-5-yl)pyrimidine-5-formamide], in series [1] (setting [3]), the AUC(0-inf) stood at 0.067 µg·h/mL, the Cmax came out at 0.0438 µg/mL, the time of peak concentration (Tmax) turned out to be 0.5 h and the half-life was 0.91 h. In addition, the bioavailability in series [1] (setting [3]) was found to be 17.7%. In series [1] (intravenous injection, 1 mg/kg), the area under the curve AUC(0-inf) amounted to 0.188 µg·h/mL, the half-life is 0.83 h, the Cl_obs is 5.35 L/h/kg and the Vss_obs was determined as 6.62 L/kg. Besides, the half-inhibitory concentration (IC50) on PDE-5A enzyme turned out to be 0.0229 µM.
`CCOc1ccc(CNc2nc(N3CC4CC4C3)ncc2C(=O)N[C@H]2CC[C@H](O)CC2)cc1C` (stereo partly drawn) [Compound 51, 2-(3-azabicyclo[3.1.0]hexan-3-yl)-N-(trans-4-hydroxycyclohexyl)-4-((4-ethoxy-3-methylbenzyl)amino)pyrimidine-5-formamide]: in series [1] (setting [2]), the area under the curve AUC(0-inf) stood at 5.8 µg·h/mL, the peak concentration (Cmax) is 0.402 µg/mL, the time of peak concentration (Tmax) came out at 6 h and the half-life is 7.3 h. Also, the bioavailability in series [1] (setting [2]) turned out to be 52%. Also, in series [1] (intravenous injection, 2 mg/kg), the total exposure AUC(0-inf) turned out to be 4.4 µg·h/mL, the half-life is 8.8 h, the Cl_obs came out at 0.47 L/h/kg and the Vss_obs is given as 5.58 L/kg.
As for `COc1ccc(CNc2nc(N3CC4CC4C3CO)ncc2C(=O)N[C@H]2CC[C@H](O)CC2)cc1Cl` (stereo partly drawn) [Compound 35, 4-((3-chloro-4-methoxybenzyl)amino)-N-(trans-4-hydroxycyclohexyl)-2-(2-(hydroxymethyl)-3-azabicyclo[3.1.0]hexan-3-yl)pyrimidine-5-formamide], the half-maximal inhibitory concentration (IC50) at PDE-5A enzyme stood at 0.0472 µM.
With `CCOc1ccc(CNc2nc(N3CC4CC4C3)ncc2C(=O)N[C@H]2CC[C@H](O)CC2)cc1C(F)(F)F` (stereo partly drawn) [Compound 54, 2-(3-azabicyclo[3.1.0]hexan-3-yl)-N-((trans)-4-hydroxycyclohexyl)-4-((4-ethoxy-3-(trifluoromethyl)benzyl)amino)pyrimidine-5-formamide], in series [1] (setting [2]), the AUC(0-inf) is 1.42 µg·h/mL, the Cmax is 0.2 µg/mL, the Tmax is 4 h and the half-life was 2.7 h. Besides, in series [1] (setting [2]), the bioavailability was 40%. Moreover, in series [1] (intravenous injection, 2 mg/kg), the area under the curve AUC(0-inf) is 1.43 µg·h/mL, the half-life was 2.3 h, the Cl_obs was 1.43 L/h/kg and the Vss_obs is given as 3.87 L/kg.
Consider `COc1ncc(CNc2nc(N3CC4CC4C3)ncc2C(=O)NCc2ncccn2)cc1Cl` (stereo not shown) [Compound 25, 2-(3-diazabicyclo[3.1.0]hexan-3-yl)-4-(((5-chloro-6-methoxypyridin-3-yl)methyl)amino)-N-(pyrimidin-2-ylmethyl)pyrimidine-5-formamide], for which, on PDE-5A enzyme, the IC50 was 0.047 µM.
Still for that read-out and setting: with `COc1ccc(CNc2nc(N3CCC4(CC3)CC4)ncc2C(=O)NCc2ncccn2)cc1Cl` [Compound 15, 4-((3-chloro-4-methoxybenzyl)amino)-N-(pyrimidin-2-ylmethyl)-2-(6-azaspiro[2.5]octan-6-yl)pyrimidine-5-formamide] the figure was 0.0268 µM.
Same read-out and setting: with `COc1ccc(CNc2nc(N3CC4CC4C3CO)ncc2C(=O)NCCN2CCOCC2)cc1Cl` (stereo not shown) [Compound 34, 4-((3-chloro-4-methoxybenzyl)amino)-2-(2-(hydroxymethyl)-3-azabicyclo[3.1.0]hexan-3-yl)-N-(2-morpholinoethyl)pyrimidine-5-formamide] the figure was 0.0349 µM; with `COc1ccc(CNc2nc(N3CC4CC4C3CO)ncc2C(=O)NCc2ncccn2)cc1Cl` (stereo not shown) [Compound 27, 4-((3-chloro-4-methoxybenzyl)amino)-2-(2-(hydroxylmethyl)-3-azabicyclo[3.1.0]hexan-3-yl)-N-(pyrimidin-2-ylmethyl)pyrimidine-5-formamide], 0.0104 µM; with `COc1ccc(CNc2nc(N3CCC4(CC4)C3)ncc2C(=O)NCCN2CCOCC2)cc1Cl` [Compound 39, 4-((3-chloro-4-methoxybenzyl)amino)-N-(2-morpholinoethyl)-2-(5-azaspiro[2.4]heptan-5-yl)pyrimidine-5-formamide], 0.0214 µM.
Turning to `COc1ccc(CNc2nc(N3CC4CC4C3)ncc2C(=O)N[C@H]2CC[C@H](O)CC2)cc1C(F)(F)F` (stereo partly drawn) [Compound 53, 2-(3-azabicyclo[3.1.0]hexan-3-yl)-N-((trans)-4-hydroxycyclohexyl)-4-((4-methoxy-3-(trifluoromethyl)benzyl)amino)pyrimidine-5-formamide], in series [1] (setting [2]), the area under the curve AUC(0-inf) came out at 0.917 µg·h/mL, the highest level (Cmax) was 0.156 µg/mL, the Tmax is 4 h and the bioavailability worked out at 25%. In series [1] (intravenous injection, 2 mg/kg), this compound gave a total exposure AUC(0-inf) of 1.5 µg·h/mL, a half-life of 1.8 h, a Cl_obs of 1.34 L/h/kg and a Vss_obs of 2.33 L/kg.
As to `CCOc1ccc(CNc2nc(N3CC4CC4C3)ncc2C(=O)N[C@H]2CC[C@H](O)CC2)cc1Cl` (stereo partly drawn) [Compound 52, 2-(3-azabicyclo[3.1.0]hexan-3-yl)-4-((3-chloro-4-ethoxybenzyl)amino)-N-((trans)-4-hydroxycyclohexyl)pyrimidine-5-formamide], in series [1] (setting [2]), the area under the curve AUC(0-inf) came to 6 µg·h/mL, the peak level (Cmax) was 0.392 µg/mL, the time to peak (Tmax) stood at 6 h and the half-life was 8.4 h. Moreover, the bioavailability in series [1] (setting [2]) worked out at 65%. In series [1] (intravenous injection, 2 mg/kg), this compound had an AUC(0-inf) of 3.71 µg·h/mL, a half-life of 4.6 h, a Cl_obs of 0.54 L/h/kg and a Vss_obs of 3.02 L/kg.
For the compound `COc1ccc(CNc2nc(N3CC4CC4C3CO)ncc2C(=O)NCc2ccccn2)cc1Cl` (stereo not shown) [Compound 37, 4-((3-chloro-4-methoxybenzyl)amino)-2-(2-(hydroxymethyl)-3-azabicyclo[3.1.0]hexan-3-yl)-N-(pyridin-2-ylmethyl)pyrimidine-5-formamide], at PDE-5A enzyme, the IC50 came to 0.0333 µM.
In the case of `COc1ccc(CNc2nc(N3CCC4(CCC4)C3)ncc2C(=O)NCc2ccccc2)cc1Cl` [Compound 28, N-benzyl-4-((3-chloro-4-methoxybenzyl)amino)-2-(6-azaspiro[3.4]octan-6-yl)pyrimidine-5-formamide], the IC50 at PDE-5A enzyme was determined as 0.0226 µM.

Values taken from US9359371B2, “Bicyclic substituted pyrimidine compounds” (Xuanzhu Pharma Co., Ltd., priority 2012, dated 2016).
